One test concerns basophils. The test can be described thus: Basophil histamine release assay. Type of test: cell-based. To be noted: highest concentration, 10,000 nM. The procedure:
Assessment of the effect of a compound of the invention on basophil function is tested using a conventional histamine release assay, generally in accordance with the method described in Miura et al., J. Immunol., 162:4198-206 (1999). Briefly, enriched basophils are preincubated with test compounds at several concentrations from 0.1 nM to 1,000 nM for 10 min at 37° C. Then, polyclonal goat antihuman IgE (0.1 μg/mL) or fMLP is added, and allowed to incubate for an additional 30 min. Histamine released into the supernatant is measured using an automated fluorometric technique.

Another test relates to Human B Lymphocyte. Put plainly: Human B lymphocyte assay. It counts as cell-based.
A further test concerns the target PI3Kα (Homo sapiens (Human), UniProt P42336). The test can be described thus: Biochemical assay of PI3K selectivity (PI3Kα). The settings on record: ratio of IC50 for PI3Kα relative to PI3Kδ. From the text: (§1) Recombinant PI3K heterodimeric complexes consisting of a p110 catalytic subunit and a p85 regulatory subunit were overexpressed using the BAC-TO-BAC® HT baculovirus expression system (GIBCO/BRL), and then purified for use in biochemical assays. The four Class I PI 3-kinases were cloned into baculovirus vectors as follows:
p110α: Similar to the method used for p110δ, described above, a FLAG®-tagged version of p110α (see Volinia et al., Genomics, 24(3):427-77 (1994)) was subcloned in BamH1-HindIII sites of pFastbac HTb (Life Technologies) such that the clone was in frame with the His tag of the vector.
(§2) Biochemical Assay using 20 μM ATP
(§3) Using the method described in Example 2, compounds of the invention were tested for inhibitory activity and potency against PI3Kδ, and for selectivity for PI3Kδ versus other Class I PI3K isozymes. In Table 1, IC50 values (μM) are given for PI3Kδ (“Delta”), and may be calculated for the other isoforms using the ratios of IC50 values discussed below. To illustrate selectivity of the compounds, the ratios of the IC50 values of the compounds for PI3Kα, PI3Kβ, and PI3Kγ relative to PI3Kδ are given, respectively, as “Alpha/Delta Ratio,” “Beta/Delta Ratio,” and “Gamma/Delta Ratio.”
(§4) The initial selectivity assays were performed identically to the selectivity assay protocol in Example 2, except using 100 μL Ecoscint for radiolabel detection.
(§5) Subsequent selectivity assays were done similarly using the same 3× substrate stocks except they contained 0.05 mCi/mL γ[^32P]ATP and 3 mM PIP2. Subsequent selectivity assays also used the same 3× enzyme stocks, except they now contained 3 nM of any given PI3K isoform.
(§6) For all selectivity assays, the test compounds were weighed out and dissolved into 10-50 mM stocks in 100% DMSO (depending on their respective solubilities) and stored at −20° C. Compounds were thawed (to room temperature or 37° C.), diluted to 300 μM in water from which a 3-fold dilution series into water was done. From these dilutions, 20 μL was added into the assay wells alongside water blanks used for the enzyme (positive) control and the no enzyme (background) control. The remainder of the assay was performed essentially according to the selectivity assay protocol in Example 2.

For the next test, the target named is PI3Kδ (Homo sapiens (Human), UniProt O00329). Put plainly: Biochemical assay of PI3K potency using 20 μM ATP (PI3Kδ). The settings on record: read-out: Delta IC50.
Chain of PI3Kδ (O00329 whole entry S253N): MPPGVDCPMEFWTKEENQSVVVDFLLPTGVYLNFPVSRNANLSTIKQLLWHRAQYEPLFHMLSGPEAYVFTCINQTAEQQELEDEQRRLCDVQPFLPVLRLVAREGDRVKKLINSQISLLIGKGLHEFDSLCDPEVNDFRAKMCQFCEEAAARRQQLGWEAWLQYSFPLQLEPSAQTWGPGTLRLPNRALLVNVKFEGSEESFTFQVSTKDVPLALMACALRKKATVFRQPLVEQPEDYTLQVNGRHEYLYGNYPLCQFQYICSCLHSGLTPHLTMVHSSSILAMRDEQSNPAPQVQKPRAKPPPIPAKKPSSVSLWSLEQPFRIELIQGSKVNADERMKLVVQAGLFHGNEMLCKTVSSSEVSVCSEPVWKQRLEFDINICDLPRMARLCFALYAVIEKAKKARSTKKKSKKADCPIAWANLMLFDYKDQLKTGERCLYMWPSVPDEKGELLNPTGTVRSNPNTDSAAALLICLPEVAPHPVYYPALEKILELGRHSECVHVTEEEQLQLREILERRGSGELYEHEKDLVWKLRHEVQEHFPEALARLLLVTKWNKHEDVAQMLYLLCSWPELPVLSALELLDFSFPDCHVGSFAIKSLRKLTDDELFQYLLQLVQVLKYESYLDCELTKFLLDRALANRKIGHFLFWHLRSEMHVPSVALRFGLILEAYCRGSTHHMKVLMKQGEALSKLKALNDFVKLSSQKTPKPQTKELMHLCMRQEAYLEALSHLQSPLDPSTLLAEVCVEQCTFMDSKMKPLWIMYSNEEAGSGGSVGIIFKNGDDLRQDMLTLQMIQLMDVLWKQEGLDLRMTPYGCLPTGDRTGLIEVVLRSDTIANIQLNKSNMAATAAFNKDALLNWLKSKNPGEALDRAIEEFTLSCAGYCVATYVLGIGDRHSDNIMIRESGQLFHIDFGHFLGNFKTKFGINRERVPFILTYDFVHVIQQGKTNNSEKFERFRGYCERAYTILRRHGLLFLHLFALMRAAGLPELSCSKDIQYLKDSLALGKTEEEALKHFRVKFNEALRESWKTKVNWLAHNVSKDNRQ
Chain of PI3Kδ (P27986 whole entry partner): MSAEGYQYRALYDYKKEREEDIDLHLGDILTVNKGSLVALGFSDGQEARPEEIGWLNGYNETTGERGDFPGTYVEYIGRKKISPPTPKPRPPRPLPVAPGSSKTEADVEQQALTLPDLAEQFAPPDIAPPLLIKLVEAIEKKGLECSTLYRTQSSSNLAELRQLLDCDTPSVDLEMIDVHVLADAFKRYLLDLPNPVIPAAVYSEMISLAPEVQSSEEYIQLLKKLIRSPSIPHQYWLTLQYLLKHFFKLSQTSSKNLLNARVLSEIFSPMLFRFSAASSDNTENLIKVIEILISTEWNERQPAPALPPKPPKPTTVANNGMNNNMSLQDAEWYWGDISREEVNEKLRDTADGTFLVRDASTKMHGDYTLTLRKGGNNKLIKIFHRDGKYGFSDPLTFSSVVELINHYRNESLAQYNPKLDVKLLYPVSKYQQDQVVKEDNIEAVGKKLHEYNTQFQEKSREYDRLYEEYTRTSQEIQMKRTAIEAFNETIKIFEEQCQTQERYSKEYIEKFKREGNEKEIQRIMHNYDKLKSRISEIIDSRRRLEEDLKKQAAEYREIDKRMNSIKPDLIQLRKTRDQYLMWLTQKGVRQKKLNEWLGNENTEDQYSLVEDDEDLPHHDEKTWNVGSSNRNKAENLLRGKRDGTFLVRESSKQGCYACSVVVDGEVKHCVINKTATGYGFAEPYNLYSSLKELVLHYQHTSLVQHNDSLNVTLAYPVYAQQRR
Description: as §1
p110δ: A FLAG®-tagged version of human p110δ (SEQ ID NOS: 1 and 2) (see Chantry et al., J. Biol. Chem., 272:19236-41 (1997)) was subcloned using standard recombinant DNA techniques into the BamH1-Xba1 site of the insect cell expression vector pFastbac HTb (Life Technologies, Gaithersburg, Md.), such that the clone was in frame with the His tag of the vector. The FLAG® system is described in U.S. Pat. Nos. 4,703,004; 4,782,137; 4,851,341; and 5,011,912, and reagents are available from Eastman Kodak Co.
as §2
Using the method described in Example 2, compounds of the invention were tested for inhibitory activity and potency against PI3Kδ, and for selectivity for PI3Kδ versus other Class I PI3K isozymes.
as §4, §5, §6

A further test has as its system human neutrophils (PMN). Put plainly: Neutrophil (PMN) elastase release (fMLP-induced elastase exocytosis). Type of test: cell-based. On the procedure: Aliquots (8 mL) of heparinized blood from healthy volunteers are layered on 3 mL cushions of 7.3% FICOLL® (Sigma, St. Louis, Mo.) and 15.4% HYPAQUE® (Sigma) and centrifuged at 900 rpm for 30 min at room temperature in a table top centrifuge (Beckman). The neutrophil-rich band just above the FICOLL®-HYPAQUE® cushion is collected and washed with Hanks' balanced salt solution (HESS) containing 0.1% gelatin. Residual erythrocytes are removed by, hypotonic lysis with 0.2% NaCl. The neutrophil preparation is washed twice with HESS containing 0.1% gelatin and used immediately.
In addition to superoxide generation, activated neutrophils also respond by releasing several proteases that are responsible for the destruction of tissues and cartilage during inflammation. As an indication of protease release, the effect of present compound on elastase exocytosis is measured. Elastase exocytosis is quantitated by modification of the procedure described by Ossanna et al. (J. Clin. Invest., 77:1939-51 (1986)), as follows. Purified human neutrophils (0.2×10^6) (treated with either DMSO or a serial dilution of a present compound in DMSO) are stimulated with fMLP in PBS containing 0.01 mg/mL cytochalasin B, 1.0 μM sodium azide (NaN3), 5 μg/mL L-methionine and 1 μM fMLP for 90 min at 37° C. in a 96-well plate. At the end of the incubation period, the plate is centrifuged for 5 min at 1000 rpm, and 90 μL of the supernatant is transferred to 10 μL of 10 mM solution of an elastase substrate peptide, MeO-suc-Ala-Ala-Pro-Val-pNA, wherein MeO-suc=methoxy-succinyl; pNA=p-nitroanilide (Calbiochem, San Diego, Calif.). Absorbance at 410 nm is monitored for 2 hr in a 96-well plate reader. To measure the relative amounts of elastase excytosed, all absorbance values are normalized to the values without any inhibitor.
Using the methods described in Example 2, compounds of the invention were tested for inhibitory activity and potency in an assay of neutrophil (PMN) elastase release. In Table 1, the values shown are effective concentrations of the compound (EC50; μM).

For the next test, the target named is PI3Kγ (Homo sapiens (Human), UniProt P48736). Put plainly: Biochemical assay of PI3K selectivity (PI3Kγ). To be noted: ratio of IC50 for PI3Kγ relative to PI3Kδ.
Chain of PI3Kγ (P48736 whole entry): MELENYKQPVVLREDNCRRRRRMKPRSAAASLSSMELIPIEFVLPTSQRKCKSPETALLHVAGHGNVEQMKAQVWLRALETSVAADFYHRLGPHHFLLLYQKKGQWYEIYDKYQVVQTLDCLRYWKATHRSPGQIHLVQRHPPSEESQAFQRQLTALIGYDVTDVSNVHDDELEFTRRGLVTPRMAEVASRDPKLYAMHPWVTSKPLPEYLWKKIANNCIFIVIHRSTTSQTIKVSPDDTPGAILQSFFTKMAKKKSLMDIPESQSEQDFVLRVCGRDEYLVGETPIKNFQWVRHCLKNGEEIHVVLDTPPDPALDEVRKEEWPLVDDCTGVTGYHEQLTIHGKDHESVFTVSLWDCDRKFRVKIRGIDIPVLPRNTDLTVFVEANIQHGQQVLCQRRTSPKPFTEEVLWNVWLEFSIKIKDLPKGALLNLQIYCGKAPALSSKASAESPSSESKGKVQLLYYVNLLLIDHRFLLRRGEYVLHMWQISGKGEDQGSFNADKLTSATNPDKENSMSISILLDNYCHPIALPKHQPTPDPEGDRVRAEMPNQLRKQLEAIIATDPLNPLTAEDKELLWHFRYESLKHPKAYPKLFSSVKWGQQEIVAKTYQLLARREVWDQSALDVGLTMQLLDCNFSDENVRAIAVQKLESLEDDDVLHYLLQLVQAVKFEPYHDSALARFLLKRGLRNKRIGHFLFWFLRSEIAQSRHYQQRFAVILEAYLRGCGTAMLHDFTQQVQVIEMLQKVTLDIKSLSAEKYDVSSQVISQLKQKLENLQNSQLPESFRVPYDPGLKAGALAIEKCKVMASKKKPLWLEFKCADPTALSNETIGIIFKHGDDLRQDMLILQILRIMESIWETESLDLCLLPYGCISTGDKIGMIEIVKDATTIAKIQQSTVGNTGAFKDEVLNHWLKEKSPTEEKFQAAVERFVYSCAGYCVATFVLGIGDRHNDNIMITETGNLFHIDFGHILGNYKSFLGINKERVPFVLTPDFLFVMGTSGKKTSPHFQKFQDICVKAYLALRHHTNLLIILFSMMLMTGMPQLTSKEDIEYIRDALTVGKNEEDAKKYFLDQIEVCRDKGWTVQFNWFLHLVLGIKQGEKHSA
Description: p110γ: The p110γ cDNA (see Stoyanov et al., Science, 269:690-93 (1995)) was amplified from a human Marathon Ready spleen cDNA library (Clontech) according to the manufacturer's protocol using the following primers: […]
Recombinant baculoviruses containing the above clones were generated using manufacturer's recommended protocol (Life Technologies). Baculoviruses expressing His-tagged p110α, p110β, or p110δ catalytic subunit and p85 subunit were coinfected into Sf21 insect cells. To enrich the heterodimeric enzyme complex, an excess amount of baculovirus expressing p85 subunit was infected, and the His-tagged p110 catalytic subunit complexed with p85 was purified on nickel affinity column. […] In an alternate approach, p101 can be cloned into baculovirus, to permit coexpression with its preferred binding partner p110γ.
as §2, §3, §4, §5, §6

A further test concerns the target PI3Kβ (Homo sapiens (Human), UniProt P42338). Put plainly: Biochemical assay of PI3K selectivity (PI3Kβ). To be noted: ratio of IC50 for PI3Kβ relative to PI3Kδ.
Description: as §1
p110β: A p110β (see Hu et al., Mol. Cell. Biol., 13:7677-88 (1993)) clone was amplified from the human MARATHON® Ready spleen cDNA library (Clontech, Palo Alto Calif.) according to the manufacturer's protocol using the following primers: […]
as §2, §3, §4, §5, §6

These results are taken from patent publication US8586597B2, “6-fluoro-3-phenyl-2-[1-(9H-purin-6-ylamino)ethyl]-3H-quinazolin-4-one as an inhibitor of human phosphatidylinositol 3-kinase delta” (ICOS Corporation, priority 2004, dated 2013).

The structures appear in SMILES notation. pEC50, pIC50: −log10 of the molar value.

The inhibition is the relative decrease from the control value, in per cent. A high value points to strong suppression. As usually defined, the pEC50 is −log10 of the EC50, conventionally taken in molar units. Read a low pEC50 as a large EC50.

Chain of PI3Kβ (P42338 2-1070): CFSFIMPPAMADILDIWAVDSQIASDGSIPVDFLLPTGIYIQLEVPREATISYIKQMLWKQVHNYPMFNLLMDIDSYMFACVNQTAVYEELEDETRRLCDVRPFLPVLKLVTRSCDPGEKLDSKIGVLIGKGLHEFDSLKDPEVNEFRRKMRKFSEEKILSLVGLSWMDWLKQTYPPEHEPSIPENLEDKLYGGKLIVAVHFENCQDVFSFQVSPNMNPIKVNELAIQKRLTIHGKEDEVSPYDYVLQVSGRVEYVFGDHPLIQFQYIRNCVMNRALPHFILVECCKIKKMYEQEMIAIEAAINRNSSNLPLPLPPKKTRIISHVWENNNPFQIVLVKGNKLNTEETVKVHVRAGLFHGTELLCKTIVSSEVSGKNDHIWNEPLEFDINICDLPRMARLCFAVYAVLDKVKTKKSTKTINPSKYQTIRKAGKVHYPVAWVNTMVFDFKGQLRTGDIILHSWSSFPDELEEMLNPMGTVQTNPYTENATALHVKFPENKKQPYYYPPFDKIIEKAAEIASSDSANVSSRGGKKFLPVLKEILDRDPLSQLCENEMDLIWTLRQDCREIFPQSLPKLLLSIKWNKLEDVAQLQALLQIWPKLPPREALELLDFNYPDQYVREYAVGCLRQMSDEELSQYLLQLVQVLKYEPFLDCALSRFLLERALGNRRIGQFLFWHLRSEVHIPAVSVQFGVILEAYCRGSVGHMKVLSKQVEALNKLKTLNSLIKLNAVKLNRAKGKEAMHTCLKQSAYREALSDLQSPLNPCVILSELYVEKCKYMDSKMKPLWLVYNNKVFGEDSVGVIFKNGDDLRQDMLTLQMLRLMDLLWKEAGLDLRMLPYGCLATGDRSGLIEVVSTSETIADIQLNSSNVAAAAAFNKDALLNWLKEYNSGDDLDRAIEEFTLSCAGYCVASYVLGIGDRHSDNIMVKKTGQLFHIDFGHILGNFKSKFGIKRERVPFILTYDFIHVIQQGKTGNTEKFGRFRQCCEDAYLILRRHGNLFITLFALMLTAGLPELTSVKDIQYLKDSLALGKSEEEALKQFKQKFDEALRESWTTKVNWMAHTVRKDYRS
Chain of PI3Kβ (P27986 whole entry partner): as the sequence (P27986 whole entry partner) above
Chain of PI3Kα (P42336 whole entry): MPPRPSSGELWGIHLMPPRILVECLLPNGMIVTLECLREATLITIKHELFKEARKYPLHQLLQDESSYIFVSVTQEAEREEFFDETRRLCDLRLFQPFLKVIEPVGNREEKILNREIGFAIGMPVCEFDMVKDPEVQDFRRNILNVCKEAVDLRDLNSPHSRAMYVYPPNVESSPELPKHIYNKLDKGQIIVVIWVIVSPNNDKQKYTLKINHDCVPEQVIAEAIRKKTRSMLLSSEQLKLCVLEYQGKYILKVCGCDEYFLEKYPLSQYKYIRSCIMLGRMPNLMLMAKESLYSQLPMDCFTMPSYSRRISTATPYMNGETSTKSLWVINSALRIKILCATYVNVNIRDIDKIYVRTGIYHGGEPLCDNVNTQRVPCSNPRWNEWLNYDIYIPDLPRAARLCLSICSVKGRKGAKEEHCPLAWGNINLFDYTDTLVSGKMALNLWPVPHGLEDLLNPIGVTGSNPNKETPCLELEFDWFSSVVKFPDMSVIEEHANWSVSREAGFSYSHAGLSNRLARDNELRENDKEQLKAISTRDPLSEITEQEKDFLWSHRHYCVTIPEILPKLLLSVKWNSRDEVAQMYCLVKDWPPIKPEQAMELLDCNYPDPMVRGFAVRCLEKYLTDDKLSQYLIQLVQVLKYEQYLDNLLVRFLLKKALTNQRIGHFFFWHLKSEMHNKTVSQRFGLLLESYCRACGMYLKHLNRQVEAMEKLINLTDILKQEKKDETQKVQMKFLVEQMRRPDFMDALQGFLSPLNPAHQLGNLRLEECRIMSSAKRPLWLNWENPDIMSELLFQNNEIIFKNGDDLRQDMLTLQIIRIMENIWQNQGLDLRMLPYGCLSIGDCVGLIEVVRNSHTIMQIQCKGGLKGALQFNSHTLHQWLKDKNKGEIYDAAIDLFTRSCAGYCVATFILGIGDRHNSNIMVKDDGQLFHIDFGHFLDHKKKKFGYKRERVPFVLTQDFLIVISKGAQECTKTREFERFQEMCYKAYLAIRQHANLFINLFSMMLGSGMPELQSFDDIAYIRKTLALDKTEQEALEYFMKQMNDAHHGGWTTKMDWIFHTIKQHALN
Chain of PI3Kα (P27986 whole entry partner): as the sequence (P27986 whole entry partner) above
Description for Human B Lymphocyte: Heparinized blood (200 mL) from healthy volunteers is mixed with an equal volume of D-PBS, layered on 10×10 mL FICOLL-PAQUE® (Pharmacia), and centrifuged at 1600 rpm for 30 min at room temperature. Peripheral blood mononuclear cells (PBMC) are collected from the FICOLL®/serum interface, overlayed on 10 mL fetal bovine serum (FBS) and centrifuged at 800 rpm for 10 min to remove platelets. After washing, cells are incubated with DYNAL® Antibody Mix (B cell kit) (Dynal Corp., Lake Success, N.Y.) for 20 min at 4-8° C. Following the removal of unbound antibody, PBL are mixed with anti-mouse IgG coated magnetic beads (Dynal) for 20 min at 4-8° C. with gentle shaking followed by elimination of labeled non-B cells on the magnetic bead separator. This procedure is repeated once more. The B cells are resuspended in RPMI-1640 with 10% FBS, and kept on ice until further use.
To study antibody production, B cells are aliquoted at 50−75×10^3 cells/well into 96-well plate with or without inhibitor, to which IL-2 (100 U/mL) and PANSORBIN® (Calbiochem) Staphylococcus aureus cells (1:90,000) were added. Part of the media is removed after 24-36 hr, and fresh media (with or without inhibitor) and IL-2 is added. Cultures are incubated at 37° C., in the presence of a CO2 incubator for additional 7 days. Samples from each condition (in triplicate) are removed, and analyzed for IgG and IgM, as measured by ELISA. Briefly, IMMULON® 4 96-well plates are coated (50 μL/well) with either 150 ng/mL donkey antihuman IgG (H+L) (Jackson ImmunoResearch, West Grove Pa.), or 2 μg/mL donkey antihuman IgG+IgM (H+L) (Jackson ImmunoResearch) in bicarbonate buffer, and left overnight at 4° C. After washing three times with phosphate buffered saline containing 0.1% TWEEN®-80 (PBST) (350 μL/well), and blocking with 3% goat serum in PEST (100 μL/well) for 1 hr at room temperature, samples (100 μL/well) of B cell spent media diluted in PBST are added. […] Color development is stopped by H2SOa solution, and plates were read on an ELISA plate reader.

On to `O=c1cc(N2CCOCC2)oc2c(-c3ccccc3)cccc12` [LY294002], for which the inhibition at 10 µM with basophils was approximately 100%.

Consider `CC[C@H](Nc1ncnc2[nH]cnc12)c1nc2cccc(Cl)c2c(=O)n1-c1cc(F)cc(F)c1` [Compound 117, (S)-5-chloro-3-(3,5-difluoro-phenyl)-2-[1-(9H-purin-6-ylamino)-propyl]-3H-quinazolin-4-one], for which the pEC50 with Human B Lymphocyte is 8.80; with human neutrophils (PMN), 6.42. For the same molecule, on PI3Kα, the “Alpha-Delta Ratio” value amounted to 662. Moreover, the pIC50 on PI3Kδ is 7.92. Also, the “Gamma-Delta Ratio” value on PI3Kγ came to 67. In addition, the “Beta-Delta Ratio” value on PI3Kβ worked out at 78.

Take `CCC(Nc1ncnc2[nH]cnc12)c1nc2cccc(C)c2c(=O)n1-c1cc(F)cc(F)c1` (stereo not drawn) [Compound 93, 3-(3,5-difluoro-phenyl)-5-methyl-2-[1-(9H-purin-6-ylamino)-propyl]-3H-quinazolin-4-one]: the “Alpha-Delta Ratio” value on PI3Kα is recorded as 721. Also, the pIC50 at PI3Kδ is 7.59. The negative-log EC50 (pEC50) in the test on human neutrophils (PMN) is 6.23. Moreover, the “Gamma-Delta Ratio” value on PI3Kγ amounted to 62. For the same molecule, the “Beta-Delta Ratio” value at PI3Kβ came out at 94.

With `CCC(Nc1ncnc2[nH]cnc12)c1nc2ccccc2c(=O)n1-c1ccccc1` (stereo not drawn) [Compound 98, 3-phenyl-2-[1-(9H-purin-6-ylamino)-propyl]-3H-quinazolin-4-one], the figures for the pEC50 in the test with Human B Lymphocyte and with human neutrophils (PMN) were 8.34 and 7.08, respectively. Besides, the “Alpha-Delta Ratio” value at PI3Kα turned out to be 608. In addition, the pIC50 at PI3Kδ is 7.80. For the same molecule, the “Gamma-Delta Ratio” value on PI3Kγ turned out to be 66. On PI3Kβ, the “Beta-Delta Ratio” value is on record as 74.

On to `CCC(Nc1ncnc2[nH]cnc12)c1nc2cccc(Cl)c2c(=O)n1-c1c(F)cccc1F` (stereo not drawn) [Compound 174, 5-chloro-3-(2,6-difluoro-phenyl)-2-[1-(9H-purin-6-ylamino)-propyl]-3H-quinazolin-4-one], for which the values for the negative-log EC50 (pEC50) in the test with Human B Lymphocyte and in the test with human neutrophils (PMN) were 7.51 and 6.53, respectively. Moreover, the “Alpha-Delta Ratio” value at PI3Kα came out at 250. Also, the pIC50 on PI3Kδ was 7.35. The “Gamma-Delta Ratio” value on PI3Kγ turned out to be 38. Moreover, the “Beta-Delta Ratio” value on PI3Kβ is given as 72.
